According to patent publication US9101567B2, “Suppression of cancer growth and metastasis using nordihydroguaiaretic acid derivatives with 7-hydroxystaurosporine” (The Johns Hopkins University, priority 2010, dated 2015):

What was measured:
caspase-3 and 9 = experiment: Western blotting of cleaved caspase-3 and 9 in LNCaP cells; type: cell-based, human; details: 17 hrs, M4N 80 μM, etoposide 10 μM, rapamycin 10 μM, UCN-01 2 μM
Experimental: (§1) The sample volumes were adjusted by the total protein amount. Protein assay was performed by Bio-Rad Protein Assay (Bio-Rad Laboratories, Inc. Hercules, Calif.). The samples were resolved by the standard SDS-polyacrylamide gel electrophoresis and transferred to nitrocellulose membrane (Amersham Biosciences, Bjorkgatan, Sweden). The membranes were blocked with skim milk, and incubated with primary antibodies at 4° C. overnight and then with secondary antibody conjugated with horse radish peroxidase at room temperature for 2 hrs. The signals were detected by western blot chemiluminescence reagent plus (New England Nuclear Life Science Products, Boston, Mass.).
(§2) The efficacy of the combination treatment of M4N with three anticancer drugs, etoposide, rapamycin, and UCN-01 to induce cell death was examined for LNCaP human prostate cancer cells with TUNEL assay. We chose these anticancer drugs trying to diversify the mechanisms in which the anticancer drugs work (43-45). […] Additionally the effect of caspase-3 and 7 inhibitor, zDEVD-fmk on the cell death induced by the combination treatment was examined (FIG. 1E).

LNCaP tumors = experiment: Nude mice orthotopically implanted with LNCaP tumors: life-span and lung metastasis; type: in vivo, nude (nu/nu) mice; details: LNCaP tumor-bearing nude mice; lung sections, hematoxylin and eosin
Experimental: T-cell deficient male nude mice (nu/nu) were obtained from Charles River Laboratories (Wilmington, Mass.). […] For drug combinations (M4N/etoposide, M4N/rapamycin, and M4N/UCN-01), etoposide, rapamycin, or UCN-01 powder was further added to M4N in CPE 25/30 to make a final concentration of M4N (10 mg/ml) respectively with etoposide (4 mg/ml), rapamycin (3.75 mg/ml), or UCN-01 (884 g/ml) in CPE 25/30 formulation. These drugs were intravenously injected into the tail vein of mice at the daily dose of 0.1 ml per mouse. Therefore dosages of each injection were 1 mg/shot (for M4N), 0.4 mg/shot (for etoposide), 0.375 mg/shot (for rapamycin), and 88.4 μg/shot (for UCN-01). The drug injections were performed once every day; beginning at day 3 until day 31 after tumor inoculation for the combination treatment with either etoposide or rapamycin and until day 25 after tumor inoculation for the combination treatment with UCN-01. After this the drugs were injected once a week for etoposide/rapamycin combination treatment and once every three days until day 35 for UCN-01 combination treatment.
LNCaP cells growing subconfluently were collected into the tissue culture medium without fetal bovine serum and antibiotics. The cell concentration was adjusted by the same medium. […]

caspase-7 [1] = experiment: Enzymatic assay for caspase-7 in extracts of treated LNCaP cells; type: cell-based, human; details: extracts of LNCaP cells treated for 13 hrs
Experimental: The enzymatic assay specific for caspase-7 was performed using a CaspSELECT caspase-7 immunoassay kit (BioVision, Mountain View, Calif.). This assay is based on the […] assay with DEVD-afc. Since DEVD-afc can be a substrate for either caspase-3 or 7, only caspase-7 is selected from cell extracts by anti-caspase-7 antibody which is coated on microtiter plates. Briefly the microtiter plates were coated with anti-caspase-7 antibody overnight at 4 C and blocked with a blocking solution for 30 minutes at room temperature. The cell extracts were applied to the microtiter plates. After washing the microtiter plates, the substrate […] was added to the plates and incubated for about three hours. The fluorescence was measured by a microtiter plate fluorescence reader Infinite 200 (Tecan, Switzerland).
as §2

caspase-7 [2] = experiment: Western blotting of caspase-7 cleavage in HepG2 cells; type: cell-based, human; details: HepG2, 17 hrs; M4N 80 μM, etoposide 20 μM, rapamycin 20 μM, UCN-01 5 μM
Experimental: as §1
The effect of the combination treatments on cell death and autophagy was examined in two cell lines other than LNCaP cells.

[3] = test system: LNCaP human prostate cancer cells; experiment: TUNEL assay of cell death in LNCaP cells; type: cell-based; details: 24 hrs, z-DEVD-fmk 50 μM
Excerpt: LNCaP human prostate cancer, DU145 human prostate cancer, PC3 human prostate cancer, MCF-7 human breast cancer, MDA-MB-231 human breast cancer, MDA-MB-468 human breast cancer, HT29 human colon cancer, K562 human myelogenous leukaemia, HepG2 human hepatoma, Hep3B human hepatoma, and LN229 human glioblastoma cancer cell lines were purchased from American Type Culture Collection (Manassas, Va.). OC24 human ascites ovarian cancer cell line was a generous gift from Dr. XXX (Johns Hopkins University, MD). LNCaP cell line was cultured in RPMI1640 medium supplemented with glucose (14 mM), pyruvate (1 mM), and fetal bovine serum (FBS) (10%). DU145 cell line was cultured in MEM supplemented with non-essential amino acids, glucose (21 mM), pyruvate (1 mM), and FBS (10%). PC3 cell line was cultured in F-12K medium supplemented with FBS (10%). MCF-7 cell line was cultured in DMEM supplemented with FBS (10%). OC24 cell line was cultured in RPMI1640 medium supplemented with FBS (10%) as suspension culture. MDA-MB-231 and 468 cell lines were cultured in Leibovitz's L15 medium supplemented with FBS (10%) under air. HT29 cell line was cultured in DMEM supplemented with glucose (25 mM) and FBS (10%). K562 cell line was cultured in RPMI1640 supplemented with FBS (10%). HepG2 and Hep3B cell lines were cultured in MEM supplemented with FBS (10%). LN229 cell line was cultured in DMEM supplemented with FBS (5%). […]

| Structure (SMILES) | expression of cleaved caspase-3 and 9 (caspase-3 and 9) | mice with obvious lung metastasis (histology) (LNCaP tumors) | caspase-7 activation (enzymatic activity) (caspase-7 [1]) | caspase-7 cleavage product (caspase-7 [2]) | effect on TUNEL-positive cell death induced by the combination treatments [3] |
| --- | --- | --- | --- | --- | --- |
| COc1cc([C@@H]2c3cc4c(cc3[C@@H](O[C@@H]3O[C@@H]5CO[C@@H](C)O[C@H]5[C@H](O)[C@H]3O)[C@H]3COC(=O)[C@H]23)OCO4)cc(OC)c1O [etoposide] | didn't induce the cleavage | 3 out of 5 | only a small amount | small amount | – |
| COC(=O)CC[C@H](NC(=O)[C@H](CC(=O)OC)NC(=O)OCc1ccccc1)C(=O)N[C@H](C(=O)N[C@@H](CC(=O)OC)C(=O)CF)C(C)C [zDEVD-fmk] | – | – | – | – | inhibited a large portion of the cell death |
